System: C. parvum strain UGA1
Assay: C. parvum growth inhibition assay (Nluc luminescence in HCT-8 cells)
Assay type: cell-based, Cryptosporidium parvum
Conditions: for EC50: C. parvum growth inhibition in HCT-8 cells, 48 hours, 6 concentrations 10-0.04 μM; for inhibition at 1 µM / inhibition at 10 µM: HCT-8; for inhibition at 1 µM: single point inhibition @ 1 uM, read-out: % inh @ 1 uM C. parvum; for inhibition at 10 µM: single point inhibition @ 10 uM, read-out: % inh @ 10 uM C. parvum
Experimental: C. parvum GROWTH INHIBITION ASSAYS
C. parvum growth inhibition was performed as described in Hulverson M A, Vinayak S, Choi R, Schaefer D A, Castellanos-Gonzalez A, Vidadala R S R, Brooks C F, Herbert G T, Betzer D P, Whitman G R, Sparks H N, Arnold S L M, Rivas K L, Barrett L K, White A C Jr, Maly D J, Riggs M W, Striepen B, Van Voorhis W C, Ojo K K. Bumped-Kinase Inhibitors for Cryptosporidiosis Therapy. J Infect Dis. 2017 Apr. 15; 215(8):1275-1284.
C. parvum strain UGA1 […] (ATCC, Manassas, VA) were prepared as described below. HCT-8 cells were inoculated onto 96-well plates were grown for 48 hours to 90%-100% confluence. C. parvum oocysts were then incubated for 10 minutes in 10% bleach at room temperature and washed with Dulbecco's phosphate-buffered saline. One thousand oocysts per well were applied to plates with Roswell Park Memorial Institute 1640 (RPMI) medium supplemented with 10% horse serum and 1% penicillin/streptomycin. Compounds of Formula (I), Formula (II), and Formula (III) were added to the plates at different concentrations and the plates were incubated for 48 hours. Following the incubation, the monolayers were lysed for 1 hour before a luciferase reagent was added, and relative luminescence units were determined.
For certain compounds of Formula I, Formula II, and Formula III, EC50 values were calculated using curves calculated from Prism after analysis of C. parvum growth inhibition at 6 different concentrations: 10, 3.33, 1.11, 0.37, 0.12, and 0.04 μM. […] For certain compounds of Formula I, Formula II, and Formula III, single point inhibition values of 0-33% (activity level D), between 33% and 66% (activity level E), and between 67% and 100% (activity level F) are also shown in Table 1 below.

[1] = Cryptosporidium parvum, HCT-8, 48 h

Compound	EC50 [1]	EC50	inhibition at 1 µM (Cryptosporidium parvum)	inhibition at 10 µM (Cryptosporidium parvum)
Cc1cc(-c2[nH]c3cc(NC4CCOC4)ncc3c2C)ccn1 (stereo in doubt) [Example 368, (R)-3-methyl-2-(2-methylpyridin-4-yl)-N-(tetrahydrofuran-3-yl)-1H-pyrrolo[3,2-c]pyridin-6-amine]	> 1 µM			
FC(F)(F)CNc1nccc(-c2cc3cnc(NC4CCOC4)cc3[nH]2)n1 (stereo in doubt) [Example 374, (S)-N-(tetrahydrofuran-3-yl)-2-(2-(2,2,2-trifluoroethylamino)pyrimidin-4-yl)-1H-pyrrolo[3,2-c]pyridin-6-amine]	0.5 to 1 µM			
Cn1c(-c2ccnc(NCC(F)(F)F)n2)cc2cnc(NC3CCCOC3)cc21 (stereo in doubt) [Example 379, (S)-1-methyl-N-(tetrahydro-2H-pyran-3-yl)-2-(2-(2,2,2-trifluoroethylamino)pyrimidin-4-yl)-1H-pyrrolo[3,2-c]pyridin-6-amine]	> 1 µM			
Cn1c(-c2ccnc(NCC(F)(F)F)n2)cc2cnc(NC3CCCOC3)cc21 (stereo in doubt) [Example 386, (R)-1-methyl-N-(tetrahydro-2H-pyran-3-yl)-2-(2-(2,2,2-trifluoroethyl)amino)pyrimidin-4-yl)-1H-pyrrolo[3,2-c]pyridin-6-amine]	> 1 µM			
Cc1cc(-c2cc3cnc(N[C@@H]4CCOC4)cc3[nH]2)ccn1 [Example 13, (R)-2-(2-Methylpyridin-4-yl)-N-(tetrahydrofuran-3-yl)-1H-pyrrolo[3,2-c]pyridin-6-amine]		0.5 to 1 µM	33 to 66%	67 to 100%
Cc1cc(-c2cc3cnc(N[C@H]4CCCOC4)cc3[nH]2)ccn1 [Example 22, (S)-2-(2-Methylpyridin-4-yl)-N-(tetrahydro-2H-pyran-3-yl)-1H-pyrrolo[3,2-c]pyridin-6-amine]	> 1 µM		33 to 66%	67 to 100%
c1nc(NC2CCOCC2)cc2[nH]c(C3CCCCC3)cc12 [Example 26, 2-Cyclohexyl-N-(tetrahydro-2H-pyran-4-yl)-1H-pyrrolo[3,2-c]pyridin-6-amine]	> 1 µM			
CN(CC(F)(F)F)c1nccc(-c2cc3cnc(NC4CCOCC4)cc3n2C)n1 [Example 30, 1-Methyl-2-(2-(methyl(2,2,2-trifluoroethyl)amino)pyrimidin-4-yl)-N-(tetrahydro-2h-pyran-4-yl)-1H-pyrrolo[3,2-c]pyridin-6-amine]	> 1 µM		0 to 33%	
Cc1cc(-c2cc3cnc(NC4CCOCC4)cc3[nH]2)ncn1 [Example 38]	> 1 µM			
CN(CC(F)(F)F)c1cc(-c2cc3cnc(NC4CCOCC4)cc3[nH]2)ncn1 [Example 44, 2-(6-(Methyl(2,2,2-trifluoroethyl)amino)pyrimidin-4-yl)-N-(tetrahydro-2H-pyran-4-yl)-1H-pyrrolo[3,2-c]pyridin-6-amine]			0 to 33%	67 to 100%
O=C(Nc1cc2[nH]c(C3CC(F)(F)C3)cc2cn1)C1CC1 [Example 53, N-(2-(3,3-difluorocyclobutyl)-1H-pyrrolo[3,2-c]pyridin-6-yl)cyclopropanecarboxamide]	> 1 µM			
N#Cc1cc(-c2cc3cnc(Nc4cccc(C5CCOCC5)c4)cc3[nH]2)ccn1 [Example 54, 4-(6-(3-(tetrahydro-2H-pyran-4-yl)phenylamino)-1H-pyrrolo[3,2-c]pyridin-2-yl)picolinonitrile]	> 1 µM		0 to 33%	67 to 100%
Cc1cc(-c2cc3cnc(NC(=O)C4CC4)cc3n2CCO)ncn1 [Example 55, N-(1-(2-hydroxyethyl)-2-(6-methylpyrimidin-4-yl)-1H-pyrrolo[3,2-c]pyridin-6-yl)cyclopropanecarboxamide]	> 1 µM			
Cn1cc(Nc2cc3[nH]c(-c4ccnc(C#N)c4)cc3cn2)cn1 [Example 56, 4-(6-(1-methyl-1H-pyrazol-4-ylamino)-1H-pyrrolo[3,2-c]pyridin-2-yl)picolinonitrile]	> 1 µM		0 to 33%	67 to 100%
Cn1cnc(-c2cc3cnc(NC(=O)C4CC4)cc3n2C)n1 [Example 57, N-(1-methyl-2-(1-methyl-1H-1,2,4-triazol-3-yl)-1H-pyrrolo[3,2-c]pyridin-6-yl)cyclopropanecarboxamide]	> 1 µM			
CCOc1nccc(-c2cc3cnc(NC(=O)C4C5CCCC54)cc3[nH]2)n1 (centres unmarked) [Example 58, N-(2-(2-ethoxypyrimidin-4-yl)-1H-pyrrolo[3,2-c]pyridin-6-yl)bicyclo[3.1.0]hexane-6-carboxamide]	> 1 µM		0 to 33%	67 to 100%

Compound	EC50 [1]	EC50	inhibition at 1 µM (Cryptosporidium parvum)	inhibition at 10 µM (Cryptosporidium parvum)
Cc1cc(-c2cc3cnc(NC4CCOCC4)cc3n2C)ccn1 [Example 59, 1-methyl-2-(2-methylpyridin-4-yl)-N-(tetrahydro-2H-pyran-4-yl)-1H-pyrrolo[3,2-c]pyridin-6-amine]	> 1 µM			
Cn1cnc(-c2cc3cnc(NC(=O)C4CC4)cc3[nH]2)c1 [Example 60, N-(2-(1-methyl-1H-imidazol-4-yl)-1H-pyrrolo[3,2-c]pyridin-6-yl)cyclopropanecarboxamide]	> 1 µM			
O=C(Nc1cc2[nH]c(-c3cnc(C4CC4)o3)cc2cn1)C1CC1 [Example 61, N-(2-(2-cyclopropyloxazol-5-yl)-1H-pyrrolo[3,2-c]pyridin-6-yl)cyclopropanecarboxamide]	> 1 µM			
COc1nccc(-c2cc3cnc(NC4CCOCC4)cc3[nH]2)n1 [Example 62, 2-(2-methoxypyrimidin-4-yl)-N-(tetrahydro-2H-pyran-4-yl)-1H-pyrrolo[3,2-c]pyridin-6-amine]	> 1 µM			
COc1nccc(-c2cc3cnc(NC(=O)[C@H]4C[C@H](O)C4)cc3[nH]2)n1 [Example 63, (1r,3r)-3-hydroxy-N-(2-(2-methoxypyrimidin-4-yl)-1H-pyrrolo[3,2-c]pyridin-6-yl)cyclobutanecarboxamide]	> 1 µM		0 to 33%	67 to 100%
Cn1cc(C(=O)Nc2cc3[nH]c(-c4cnco4)cc3cn2)cn1 [Example 64, 1-methyl-N-(2-(oxazol-5-yl)-1H-pyrrolo[3,2-c]pyridin-6-yl)-1H-pyrazole-4-carboxamide]	> 1 µM		0 to 33%	33 to 66%
Cn1cnc(-c2cc3cnc(NC(=O)C4CC4)cc3[nH]2)n1 [Example 65, N-(2-(1-methyl-1H-1,2,4-triazol-3-yl)-1H-pyrrolo[3,2-c]pyridin-6-yl)cyclopropanecarboxamide]	> 1 µM			
Cc1cc(-c2cc3cnc(Nc4cccc(-c5nc[nH]n5)c4)cc3[nH]2)ccn1 [Example 66, N-(3-(1H-1,2,4-triazol-3-yl)phenyl)-2-(2-methylpyridin-4-yl)-1H-pyrrolo[3,2-c]pyridin-6-amine]	> 1 µM		67 to 100%	67 to 100%
Cc1cc(-c2cc3cnc(NCC4CC4)cc3[nH]2)ccn1 [Example 67, N-(cyclopropylmethyl)-2-(2-methylpyridin-4-yl)-1H-pyrrolo[3,2-c]pyridin-6-amine]	> 1 µM			
O=C(Nc1cc2[nH]c(-c3ccncc3)cc2cn1)C1CCOCC1 [Example 68, N-(2-(pyridin-4-yl)-1H-pyrrolo[3,2-c]pyridin-6-yl)tetrahydro-2H-pyran-4-carboxamide]	> 1 µM		0 to 33%	67 to 100%
Cc1cccc(-c2cc3cnc(NC(=O)C4CC4)cc3n2C)n1 [Example 69, N-(1-methyl-2-(6-methylpyridin-2-yl)-1H-pyrrolo[3,2-c]pyridin-6-yl)cyclopropanecarboxamide]	> 1 µM			
Cn1cc(-c2cc3cnc(Nc4ccccc4)cc3n2C)cn1 [Example 70, 1-methyl-2-(1-methyl-1H-pyrazol-4-yl)-N-phenyl-1H-pyrrolo[3,2-c]pyridin-6-amine]	> 1 µM		33 to 66%	67 to 100%
FC(F)(F)c1cc2cnc(NC3CCOCC3)cc2[nH]1 [Example 71, N-(tetrahydro-2H-pyran-4-yl)-2-(trifluoromethyl)-1H-pyrrolo[3,2-c]pyridin-6-amine]	> 1 µM			
c1cncc(-c2cc3cnc(NC4CCOCC4)cc3[nH]2)c1 [Example 72, 2-(pyridin-3-yl)-N-(tetrahydro-2H-pyran-4-yl)-1H-pyrrolo[3,2-c]pyridin-6-amine]	> 1 µM		0 to 33%	0 to 33%
Cc1ccnc(-c2cc3cnc(NC(=O)C4CC4)cc3n2C)c1 [Example 73, N-(1-methyl-2-(4-methylpyridin-2-yl)-1H-pyrrolo[3,2-c]pyridin-6-yl)cyclopropanecarboxamide]	> 1 µM			
Cn1c(-c2cnco2)cc2cnc(NC(=O)C3CC3)cc21 [Example 74, N-(1-methyl-2-(oxazol-5-yl)-1H-pyrrolo[3,2-c]pyridin-6-y)cyclopropanecarboxamide]	> 1 µM			

Source: patent publication US20240124444A1 (Celgene Corporation, priority 2020, published 2024)
